# From PMC11865978, “Cellular Activity of CQWW Nullomer-Derived Peptides” (ACS Omega, 2025)
# Non-standard residues stand in square brackets, D forms with d. Residues, ends and D or L forms follow the SMILES beside them. No end group written: not given here.
# How the values were obtained:
# [1] = system: GSK-3; assay: Reverse phase protein array (RPPA); assay type: cell-based, human; conditions: peptides at 3 μM, 3 h and 24 h (peptide 7: 24 h only), seven cell lines; fold difference vs water control
# Description: The phenotypic effect of the peptides was visualized by live cell imaging (Figure 1C, IncuCyte live cell imager) and also quantified via image analysis of cells labeled with the cell painting reagents (see Supporting Information) followed by image analysis using Cell Profiler (cellprofiler.org). Multiparametric outputs from Cell Profiler were processed using Phenonaut[46] [v 2.0.3] (see Jupyter notebook ‘Phenonaut_processing_of_nullomer_data.ipynb’ in the Aminonaut repository for methods and code used). […] Peptides 2, 5, and 7 were deemed to have the most merit for mode of action determination using reverse phase protein arrays (RPPAs) (see Supporting Information for methods). […]
# growth and stemness was further supported by the addition of laminin extracellular matrix (Cultrex 3446-005-01, 4-10 mg/mL) to the growth media and to create pre-coated flasks/384w plates. Cells were cultured in T75 cm2 flasks and passaged as follows: Glioma stem cells generally grow slowly (~60hrs doubling time, excepting GCGR-E57 cells ~24hrs) and lag phase was exacerbated by sparse seeding. Cell confluence is generally ~80 -90% prior to passaging, whereby the culture media was aspirated, the cells washed (PBS) and Accutase solution (Sigma A6964, 1 mL) was added to detach the cells, which were then incubated at 37 °C for <5 minutes. Cells were resuspended in media and centrifuged for 3 minutes at 300 × g. Resuspended cells were typically split 1:5, 1:8 (GCGR-E57 cells) and 1:2, 1:4 for the remainder of cell lines, depending on requirements . Cells were passaged every 4-7 days to maintain health and growth and discarded after 3 months, whereupon a fresh batch of cells […]
# Reverse Phase Protein Array (RPPA)
# Culture media was aspirated and cells washed with wash media. Accutase solution (1mL) was used to detach the cells which were then incubated at 37 °C for 5 minutes. 10 mL of wash media was added, and the cells were pipetted into a 15 mL conical tube, after which they were centrifuged for 3 minutes at 300× g to form a pellet. Supernatant was aspirated, and cells resuspended in 5 mL of wash media. A 10 μL sample of the cell suspension was pipetted onto the reading surface of a DeNovix CellDrop automated cell counter and the reading was used to dilute the suspension in complete media to 250,000 cells/mL. 2 mL of this suspension was added to each well of 6-well plates to seed plates at 500,000 cells per well. 2 plates of each cell type (GCGR-E13, GCGR-E21, GCGR-E28, GCGR-E31, GCGR-E34, GCGR-E57 and GCGR-NS9FB_B) were seeded, one each for two nullomer dosage […]
# timepoints (3 h and 24 h). The cells were incubated in the 6-well plates overnight, and dosing was carried out in the following morning. […]
# [2] = system: GCGR-E34; assay type: cell-based, human; conditions: 72 h
# Experimental: (§1) Peptides were tested in an automated image-based high-content[42] cell painting[43],[44] assay that was originally developed to explore the mechanism of action of pharmacological and genetic perturbations within cells,[45] as well as a live cell imaging assay against six patient-derived glioblastoma cell lines (GCGR-E13, GCGR-E28, GCGR-E21, GCGR-E57, GCGR-E31, and GCGR-E34), covering classical, mesenchymal, and proneural subtypes, respectively (see Methods and Figure 1B–D), along with a healthy human fetal neuronal stem cell line (GCGR-NS9FB_B).
# (§2) Cell survival was quantified by nuclei counts from the Hoechst dye-stained nuclei and IC50 values calculated along with 95% confidence intervals (Figure 1B; see Table S2 for full details). […]
# (§3) High Content Phenotypic Screening assays
# (§4) Cell lines (glioma stem cell lines and normal foetal neural stem cells) were seeded on laminin (10 µg/mL) coated 384-well plates (Greiner Bio-One, 781091) at 1,000 cells/well and incubated overnight at 37 °C and 5% CO2. Aqueous peptide solutions (10 mM) were further diluted to 1 mM in water containing 10 % glycerol and 0.01 % TX-100. […]
# (§5) The cells were placed in an IncuCyte live cell imager (Essen BioScience) and imaged every three hours for 72 hours. Prior to fixation, the plates were removed from the IncuCyte and stained with Mitrotracker DeepRed (Invitrogen, M22426, 300 nM, 30 minutes). Cells were then fixed using 4 % formaldehyde and permeabilized with 0.1 % TX-100 in PBS. The cells were stained with ‘Cell Painting’ […]
# (§6) assay reagents1: Hoechst 33342 (10 mg/mL stock, Molecular Probes, 1:5000), SYTO14 […]
# (§7) BSA/PBS. The plates were imaged using an ImageXpress high content microscope (Molecular Devices). Cells were imaged with a 20× objective, covering 6 fields-of-view in each well. The data was then analyzed using a custom CellProfiler software pipeline using the University of Edinburgh high performance computing cluster. Dose response plots were calculated using HC StratomineR (corelifeanalytics.com). Nuclei count data was analyzed separately to generate cell survival metrics (normalized to aqueous glycerol/TX -100 control). […]
# [3] = system: GCGR-E13; assay type: cell-based, human; conditions: 72 h
# Experimental: as §1, §2, §3, §4, §5, §6, §7
# [4] = system: GCGR-E21; assay type: cell-based, human; conditions: 72 h
# Experimental: as §1, §2, §3, §4, §5, §6, §7
# [5] = system: GCGR-E31; assay type: cell-based, human; conditions: 72 h
# Experimental: as §1, §2, §3
# (§8) Cell lines (glioma stem cell lines and normal foetal neural stem cells) were seeded on laminin (10 µg/mL) coated 384-well plates (Greiner Bio-One, 781091) at 1,000 cells/well and incubated overnight at 37 °C and 5% CO2. Aqueous peptide solutions (10 mM) were further diluted to 1 mM in water containing 10 % glycerol and 0.01 % TX-100. Cells were dosed using a D300 digital dispenser (Tecan) by 10-point dose response (30 µM – 1 µM) in triplicate and with aqueous glycerol/TX-100 as control. The cells were placed in an IncuCyte live cell imager (Essen BioScience) and imaged every three hours for 72 hours. Prior to fixation, the plates were removed from the IncuCyte and stained with Mitrotracker DeepRed (Invitrogen, M22426, 300 nM, 30 minutes). Cells were then fixed using 4 % formaldehyde and permeabilized with 0.1 % TX-100 in PBS. The cells were stained with ‘Cell Painting’ […]
# as §6, §7
# [6] = system: GCGR-E28; assay type: cell-based, human; conditions: 72 h
# Experimental: as §1, §2, §3, §8, §6, §7
# [7] = system: GCGR-NS9FB_B; assay type: cell-based, human; conditions: 72 h
# Experimental: as §1, §2, §3, §8, §6, §7
# [8] = system: GCGR-E57; assay type: cell-based, human; conditions: 72 h
# Experimental: as §1, §2, §3, §8, §6, §7
# [9] = system: NCI-60 panel; conditions: 60 cell lines from human cancers of nine organs; cited from earlier work
# Description: (§9) Closely related to nullomer peptides, rarely observed amino acid stretches have also been studied by Capone et al., who assert that the minimal sufficient antigenic determinants of a protein could be encoded in just five rarely seen amino acids.[20] Complementing this, Patel et al. noted that these rare sequences could be used to enhance antigen-specific immune responses when dosed alongside adjuvant vaccines.[21] It was also noted by Koulouras et al. that human viruses rarely share human nullomers, facilitating host mimicry and immune evasion,[22] an interesting example of this being highligh ...
# [10] = system: normal cell lines and cancer cell lines; conditions: cited from earlier work
# Description: as §9
# [11] = system: triple-negative breast cancer mouse model; conditions: cited from earlier work
# Description: as §9
Compound,GSK-3 regulation in RPPA [1],IC50 [2] [µM],IC50 [3] [µM],IC50 [4] [µM],IC50 [5] [µM],IC50 [6] [µM],IC50 [7] [µM],IC50 [8] [µM],lethal effect on NCI-60 panel [9],mitochondrial impairment [10],gene expression by transcriptomics in triple-negative breast cancer mouse model [11]
N=C(N)NCCC[C@H](NC(=O)[C@H](CCCNC(=N)N)NC(=O)[C@H](CCCNC(=N)N)NC(=O)[C@@H](N)CCCNC(=N)N)C(=O)N[C@@H](CCCNC(=N)N)C(=O)N[C@H](CS)C(=O)N[C@H](CCC(N)=O)C(=O)N[C@H](Cc1c[nH]c2ccccc12)C(=O)N[C@H](Cc1c[nH]c2ccccc12)C(N)=O [Peptide 3] (H-RRRRR[dC][dQ][dW][dW]-NH2),downregulation of GSK-3,5.3,6.9,7.5,8.7,8.4,9.7,5.4,,,
N=C(N)NCCC[C@H](NC(=O)[C@H](CCCNC(=N)N)NC(=O)[C@H](CCCNC(=N)N)NC(=O)[C@@H](N)CCCNC(=N)N)C(=O)N[C@@H](CCCNC(=N)N)C(=O)N[C@H](Cc1c[nH]c2ccccc12)C(=O)N[C@H](Cc1c[nH]c2ccccc12)C(=O)N[C@H](CCC(N)=O)C(=O)N[C@H](CS)C(N)=O [Peptide 5] (H-RRRRR[dW][dW][dQ][dC]-NH2),downregulation of GSK-3β,17.6,13.6,16.3,15.7,13.2,15.9,9.9,,,
NWMWC [pentamer peptide nullomer of Alileche et al],,,,,,,,,lethal to a high fraction of oncogenic cell lines,caused mitochondrial impairment in both normal cell lines and cancer cell lines,
"RRRRR-NH2 [Peptide 15, reference compound]",,15.8,,,,,,,,,
RRRRRAQWW-NH2 [Peptide 6],,,151,279,,86,,,,,
RRRRRCAWW-NH2 [Peptide 7],downregulation of GSK-3β,6,10.6,11.2,12.1,9.7,11.9,6.3,,,
RRRRRCQAW-NH2 [Peptide 8],,100,100,75,238,100,100,100,,,
RRRRRCQW-NH2 [Peptide 10],,154,> 100,> 100,> 100,168,,108,,,
RRRRRCQWA-NH2 [Peptide 9],,15.8,> 30,> 30,> 30,> 30,> 30,> 30,,,
RRRRRFQWW-NH2 [Peptide 13],,> 100,52,81.3,101,29.6,,55.7,,,
RRRRRHQWW-NH2 [Peptide 14],,> 100,52,132,123,58,,119,,,
RRRRRMQWW-NH2 [Peptide 12],,> 100,117,122,59.7,100,,> 100,,,
RRRRRQWW-NH2 [Peptide 11],,114,110,158,74.3,72.6,,99.5,,,
RRRRRWWQC-NH2 [Peptide 4],,8.6,13.1,12.8,11.8,10.9,13.8,9,,,
"WCMNW [permutation of pentamer nullomer NWMWC, Alileche et al]",,,,,,,,,lethal to a high fraction of oncogenic cell lines,caused mitochondrial impairment in both normal cell lines and cancer cell lines,downregulation of key genes involved in the mitochondrial TCA cycle
